Test results reported in patent US20220305121A1, “N-ARYL SULFONAMIDE DERIVATIVES AS VACCINE ADJUVANT” (The Regents of the University of California, priority 2019, published 2022).

Assays:
Assay type in all cases: cell-based
NF-κB = assay: Measurement of NF-κB activation using THP1-Blue NF-κB cells (SEAP reporter, LPS as primary stimulus); conditions: compound 5 μM + LPS, 20 hour incubation; two point normalized: compound 1 + LPS = 200%, LPS = 100%; mean
Experimental: THP1-Blue™ NF-κB cells were plated in 96-well plates at 10^5 cells/well in 100 μl RPMI supplemented with 10% fetal bovine serum (FBS, Omega Scientific, Inc., Tarzana, Calif.), 100 U/mL penicillin, 100 μg/ml streptomycin (Thermo Fisher Scientific) and Normocin (Invivogen). LPS was prepared in assay medium at a concentration of 20 μg/mL. Tested compounds were dissolved in DMSO at 1 mM as a stock solution and were further diluted in the LPS solution to a final concentration of 10 μM. 100 μL of this solution was then transferred to the plated cells to obtain a final concentration of LPS at 10 μg/mL and compound at 5 μM ([…]). The culture supernatants were harvested after a 20 hour incubation period, SEAP activity in the culture supernatants was determined by a colorimetric assay using QuantiBlue (Invivogen). Plate absorbance was read at 630 nm using a Tecan Infinite M200 plate reader (Männedorf, Switzerland). The SEAP concentration was directly proportional to NF-κB activity, which was 2-point normalized to yield activity of compound 1+LPS as 200% and activity for LPS as 100%.
Measurement of NF-κB Activation Using THP1-Blue NF-κB Cells. THP1-Blue NF-κB cells were plated in 96-well plates at 10^5 cells/well in 100 μL of RPMI supplemented with 10% fetal bovine serum (FBS, Omega Scientific, Inc., Tarzana, Calif.), 100 U/mL penicillin, 100 μg/mL streptomycin (Thermo Fisher Scientific), and Normocin (Invivogen). LPS was prepared in assay medium at a concentration of 20 μg/mL. Tested compounds were dissolved in DMSO at 1 mM as a stock solution and were further diluted in the LPS solution to a final concentration of 10 μM. 100 μL of this solution was then transferred to the plated cells to obtain a final concentration of LPS at 10 μg/mL and compound at 5 μM ([…]). The culture supernatants were harvested after a 20 hours incubation period. SEAP activity in the culture supernatants was determined by a colorimetric assay using QuantiBlue (Invivogen). Plate absorbance was read at 630 nm using a Tecan Infinite M200 plate reader (Mannedorf, Switzerland). The SEAP concentration was directly proportional to NF-κB activity, which was two-point normalized to yield activity of compound 1+LPS as 200% and activity for LPS as 100%.

ISRE = assay: Measurement of ISRE activity in ISRE-bla THP-1 cells (FRET, IFN-α as primary stimulus); conditions: compound 5 μM + IFN-α 100 U/mL, 16 hours, two point normalized: compound 1 + IFN-α = 200%, IFN-α = 100%, mean; for activity at 5 µM: Homo sapiens, THP-1, read-out: ISRE % Activation
Experimental: ISRE-bla THP-1 cells were plated in 96-well plates at 5×10^4 cells/well in 50 μl RPMI supplemented with 10% dialyzed FBS (Atlanta Biologicals, Inc., GA), 0.1 mM nonessential amino acids, 1 mM sodium pyruvate, 100 U/mL penicillin and 100 μg/ml streptomycin. Type I IFN-α (R&D Systems, #11200-2) solution was prepared in assay medium at a concentration of 200 U/mL Tested compounds were dissolved in DMSO at 1 mM and were further diluted in the IFN-α solution to a final concentration of 10 μM. 50 μL of this solution was then transferred to the plated cells to obtain a final concentration of IFN-α at 100 U/mL and compound at 5 μM ([…]), The cells were incubated for 16 hours, after which 20 μL of 6×LiveBLAzer™ FRET B/G Substrate (CCF4-AM) mixture (prepared according to the manufacturer's instructions) was added to each well, Plates were incubated at room temperature in the dark for 3 hours. Fluorescence was measured on a Tecan Infinite M200 plate reader at an excitation wavelength of 405 nm, and emission wavelengths of 465 nm and 535 nm. Background values (cell free wells at the same fluorescence wavelength) were subtracted from the raw fluorescence intensity values and the emission ratios were calculated as the ratio of background subtracted fluorescence intensities at 465 nm to background subtracted fluorescence intensities at 535 nm. The ISRE activity values for these compounds were 2-point normalized to yield activity of compound 1+IFN-α as 200% and activity for IFN-α as 100%.
Measurement of ISRE Activity in ISRE-bla THP-1 Cells. ISREbla THP-1 cells were plated in 96-well plates at 5×10^4 cells/well in 50 μL of RPMI supplemented with 10% dialyzed FBS (Atlanta Biologicals, Inc., GA), 0.1 mM nonessential amino acids, 1 mM sodium pyruvate, 100 U/mL penicillin, and 100 μg/mL streptomycin. Type I IFN-α (R&D Systems, no. 11200-2) solution was prepared in assay medium at a concentration of 200 U/mL. Tested compounds were dissolved in DMSO at 1 mM and were further diluted in the IFN-α solution to a final concentration of 10 μM. 50 μL of this solution was then transferred to the plated cells to obtain a final concentration of IFN-α at 100 U/mL and compound at 5 μM ([…]). The cells were incubated for 16 hours, after which 20 μL of 6×LiveBLAzer FRET B/G substrate (CCF4-AM) mixture (prepared according to the manufacturer's instructions) was added to each well. Plates were incubated at room temperature in the dark for 3 hours. Fluorescence was measured on a Tecan Infinite M200 plate reader at an excitation wavelength of 405 nm and emission wavelengths of 465 and 535 nm. Background values (cell free wells at the same fluorescence wavelength) were subtracted from the raw fluorescence intensity values and the emission ratios were calculated as the ratio of background subtracted fluorescence intensities at 465 nm to background subtracted fluorescence intensities at 535 nm. The ISRE activity values for these compounds were two-point normalized to yield activity of compound 1+IFN-α as 200% and activity for IFN-α as 100%.

THP-1 cells = assay: Cell viability assay (MTT); conditions: compound 5 μM, 18 hours incubation; normalized to DMSO as 100%; mean
Experimental: THP-1 cells were plated in 96-well plates (10^5 cells/well) in 100 μL RPMI supplemented with 10% FBS, 100 U/mL penicillin and 100 μg/ml streptomycin. Compounds were dissolved in DMSO at 1 mM stock solution and were further diluted to 10 μM in the assay medium. 100 μL of this solution was added to the cells to obtain a final compound concentration of 5 μM ([…]). After 18 hours incubation, a solution of MTT in assay media (0.5 mg/mL) was added to each well and further incubated for 4 to 6 hours, followed by addition of cell lysis buffer (15% w/v SDS and 0.12% v/v 12N HCl aqueous solution), incubated overnight, and then absorbance measured at 570 nm using 650 nm as reference using Tecan Infinite M200 plate reader.
Cell Viability Assay. THP-1 cells were plated in 96-well plates (10^5 cells/well) in 100 μL RPMI supplemented with 10% FBS, 100 U/mL penicillin, and 100 μg/mL streptomycin. Compounds were dissolved in DMSO at 1 mM stock solution and were further diluted to 10 μM in the assay medium. 100 μL of this solution was added to the cells to obtain a final compound concentration of 5 μM ([…]). After 18 h incubation, a solution of MTT in assay media (0.5 mg/mL) was added to each well and further incubated for 4-6 hours, followed by addition of cell lysis buffer (15% w/v SDS and 0.12% v/v 12 N HCl aqueous solution), incubation overnight, and then absorbance was measured at 570 nm using 650 nm as reference using Tecan Infinite M200 plate reader.

Row | Compound | activity at 5 µM (NF-κB) [%] | activity at 5 µM (ISRE) [%] | MTT % Viability (THP-1 cells) [%] | NF-κB % Activation (NF-κB) [%] | ISRE % Activation (ISRE) [%]
1 | CCOc1ccc(S(=O)(=O)Nc2cc(OC)c([N+](=O)[O-])cc2OC)cc1 [Compound 9, N-(2,5-dimethoxy-4-nitrophenyl)-4-ethoxybenzenesulfonamide] | 133 | 110 | 79.2 |  | 
2 | CCOc1ccc(S(=O)(=O)Nc2cc(OC)c(N)cc2OC)cc1 [Compound 10, N-(4-amino-2,5-dimethoxyphenyl)-4-ethoxybenzenesulfonamide] | 101 | 102 | 92.2 |  | 
3 | CCCCOc1ccc(S(=O)(=O)Nc2cc(OC)c(Cl)cc2OC)cc1 [Compound 14, 4-Butoxy-N-(4-chloro-2,5-dimethoxyphenyl)benzenesulfonamide] | 101 | 106 | 95.3 |  | 
4 | COc1cc(NS(=O)(=O)c2ccc([N+](=O)[O-])cc2)c(OC)cc1Cl [Compound 17, N-(4-chloro-2,5-dimethoxyphenyl)-4-nitrobenzenesulfonamide] | 101 | 103 | 97.4 |  | 
5 | COc1cc(NS(=O)(=O)c2ccc(N)cc2)c(OC)cc1Cl [Compound 18, 4-Amino-N-(4-chloro-2,5-dimethoxyphenyl)benzenesulfonamide] | 101 | 103 | 96.0 |  | 
6 | COc1cc(NS(=O)(=O)c2ccc(C#N)cc2)c(OC)cc1Cl [Compound 19, N-(4-chloro-2,5-dimethoxyphenyl)-4-cyanobenzenesulfonamide] | 97 | 106 | 102.9 |  | 
7 | COc1cc(NS(=O)(=O)c2ccc(CNC(=O)OC(C)(C)C)cc2)c(OC)cc1Cl [Compound 20, tert-butyl (4-(N-(4-chloro-2,5-dimethoxyphenyl)sulfamoyl)benzyl) carbamate] |  |  | 109.2 | 100 | 101
8 | COc1cc(NS(=O)(=O)c2ccc(CN)cc2)c(OC)cc1Cl [Compound 21, 4-(aminomethyl)-N-(4-chloro-2,5-dimethoxyphenyl)benzenesulfonamide] | 103 | 111 | 97.0 |  | 
9 | COC(=O)c1ccc(S(=O)(=O)Nc2cc(OC)c(Cl)cc2OC)cc1 [Compound 26, Methyl 4-(N-(4-chloro-2,5-dimethoxyphenyl)sulfamoyl)benzoate] | 191 | 202 | 74.4 |  | 
10 | CCCN(c1cc(OC)c(Cl)cc1OC)S(=O)(=O)c1ccc(OCC)cc1 [Compound 34, N-(4-chloro-2,5-dimethoxyphenyl)-4-ethoxy-N-propylbenzenesulfonamide] | 227 | 199 | 71.6 |  | 
11 | CCCCN(c1cc(OC)c(Cl)cc1OC)S(=O)(=O)c1ccc(OCC)cc1 [Compound 35, N-(4-chloro-2,5-dimethoxyphenyl)-4-ethoxy-N-butylbenzenesulfonamide] | 192 | 156 | 77.7 |  | 
12 | CCCCCN(c1cc(OC)c(Cl)cc1OC)S(=O)(=O)c1ccc(OCC)cc1 [Compound 36, N-(4-chloro-2,5-dimethoxyphenyl)-4-ethoxy-N-pentylbenzenesulfonamide] | 135 | 105 | 72.9 |  | 
13 | CCCCCCN(c1cc(OC)c(Cl)cc1OC)S(=O)(=O)c1ccc(OCC)cc1 [Compound 37, N-(4-chloro-2,5-dimethoxyphenyl)-4-ethoxy-N-hexylbenzenesulfonamide] | 81 | 99 | 95.2 |  | 
14 | CCCCCCCN(c1cc(OC)c(Cl)cc1OC)S(=O)(=O)c1ccc(OCC)cc1 [Compound 38, N-(4-chloro-2,5-dimethoxyphenyl)-4-ethoxy-N-heptylbenzenesulfonamide] | 108 | 95 | 90.4 |  | 
15 | CCCCCCCCCCCCN(c1cc(OC)c(Cl)cc1OC)S(=O)(=O)c1ccc(OCC)cc1 [Compound 39, N-(4-chloro-2,5-dimethoxyphenyl)-4-ethoxy-N-dodecylbenzenesulfonamide] | 97 | 100 | 93.0 |  | 
16 | C#CCN(c1cc(OC)c(Cl)cc1OC)S(=O)(=O)c1ccc(OCC)cc1 [Compound 42, N-(4-chloro-2,5-dimethoxyphenyl)-4-ethoxy-N-(prop-2-yn-1-yl) benzenesulfonamide] |  |  | 72.0 | 232 | 213
17 | CCOc1ccc(S(=O)(=O)N(CCCN)c2cc(OC)c(N=[N+]=[N-])cc2OC)cc1 [Compound 63, N-(3-aminopropyl)-N-(4-azido-2,5-dimethoxyphenyl)-4-ethoxybenzenesulfonamide] |  |  | 68.9 |  | 
